Where “and” joins values, the source holds several entries; their conditions need not be identical. Identical values can stand only once.
Experiments:
[1] = tested on: latent HIV-1 in resting CD4+ T cells; assay: Ex vivo HIV-1 reactivation in human resting CD4+ T cells from ART-treated HIV-1-infected humanized BLT mice (HIV RNA in supernatant); format: cell-based
Protocol: The efficacy of IAPa, ICI or IAPa/ICI combinations in reversing HIV-1 latency was tested in resting CD4+ T cells derived from ART-treated HIV-1-infected humanized BLT mice.
Human resting CD4+ T cells from ten mice were isolated from blood, thymic organoid, lung, spleen, bone marrow, lymph nodes and liver. Isolated human resting CD4+ T cells were pooled, counted, split and treated in duplicate for 48 h with different IAPa (1 μM) or ICI (10 μg/ml) in monotherapy, or the IAPa/ICI combinations. Amounts of virions released from cells were quantified at the indicated time points by quantifying HIV RNA levels (HIV RNA copies/mL) in supernatant of cell culture using one-step reverse transcriptase quantitative real-time PCR (ABI custom TaqMan Assays-by-Design) according to the manufacturer's instructions. Primers were 5-[…]-3 and 5-[…]-3, and MGB probe 5-FAM-[…]-Q-3, where FAM is 6-carboxyfluorescein.
(§1) The experiment was carried out using the same agents as described above for Example 8.1 (with the exception that no birinapant was used).

HIV-1 (JR-CSF) = assay: Efficacy study in HIV-1 infected humanized BLT mice: viral RNA levels in organ reservoirs (qPCR); format: in vivo
Excerpt: Methods: Humanized BLT mice were generated by implanting human fetal liver and thymus tissues under the kidney capsule of an immunodeficient NOD scid gamma (NSG=NOD.Cg-Prkdc^scidII12rg^tm1Wjl/SzJ) mouse, followed by an administration of autologous human fetal liver CD34+ cells (human hematopoietic stem cells). In BLT mice, T cell education occured in the human thymic tissue, resulting in complete systemic reconstitution of all major human hematopoietic lineages including T, B, monocyte/macrophage, dendritic, and natural killer cells. The extensive systemic and genital mucosal reconstitution with human lymphoid cells rendered female humanized BLT mice susceptible to both vaginal and rectal HIV infection.
Humanized BLT mice were generated by implanting 1-mm^3 pieces of human fetal liver and thymus tissues (Advanced Bioscience Resources) under the kidney capsule in 6 to 8-week-old female NSG mice (Jackson Laboratories) bred at The Scripps Research Institute (TSRI). Each cohort was produced with tissues from a single donor. CD34+ HSPC were purified from autologous fetal liver tissue, isolated by magnetic bead selection for CD34+ cells (Miltenyi), phenotyped cytometrically for engraftment success (CD34+, HLA DR-), and cryopreserved until injection (200,000 CD34+ cells) into mice 3 weeks after thymus/liver implantation. Human reconstitution was verified by flow cytometry (CD45+, CD3+, CD4+ and CD8+) in peripheral blood of the mice.
R5 HIV (JR-CSF) was produced by 293T transfection and quantified by p24 ELISA. Humanized mice were infected with JR-CSF (200 ng of p24) and viral replication quantified weekly by qPCR for up to 16 weeks.
Methods: Thirty-two BLT mice were infected with HIV-1. 12 weeks later mice were split in 4 groups (n=8), treated with various regimen and analyzed for 6 weeks. Group A received both vehicles for 4 weeks. Group B received Debio-1143 (100 mg/kg; QD1-5, p.o.) for 4 weeks (Debio-1143 was given 5 days a week for 4 weeks). Group C received the anti-PD-1 antibody (200 μg/dose, i.p., BIW) for 4 weeks. Group D received the combination of Debio-1143 (100 mg/kg; QD1-5, p.o.) together with the anti-PD-1 antibody (200 μg/dose i.p. BIW) for 4 weeks. Body weight, HIV-1 loads and PD-1 expression on CD8+ T cells were analyzed once weekly. After the 4 weeks of treatment, three mice per group were sacrificed for bioanalytical assessments. The remaining mice (4×5=20) were sacrificed 2 weeks after treatment completion and viral RNA levels in organ reservoirs (spleen, thymic organoid, lung, spleen, lymph nodes and liver) were quantified by qPCR.

[2] = tested on: primary CD4+ T-lymphocytes; assay: Cellular cytotoxicity (LDH assay and CellTiter Glo assay); format: cell-based, human; conditions: even at high concentration (20 μM), 72 h
Protocol: This experiment examined the cellular cytotoxicity of DEB10-1143 alone and DEB10-1143+ART on the human CD4+ T cell line JLat 10.6. DEB10-1143 was tested as well on human primary CD4+ T lymphocytes. Drug titration and kinetic studies were conducted.
Method: Cells (100,000 cells/100 μL) were treated in triplicate for 72 h with increasing concentrations of DEB10-1143 (0 to 20 μM) used alone or in combination with ART (20 μM TDF, 10 μM FTC and 1 μM Raltegravir). ART and DEB10-1143 were added simultaneously to cells. Saponin (0.5%) was used as positive control due to its ability to induce cell death.
Cellular cytotoxicity was analyzed by Lactate dehydrogenase (LDH) assay and CellTiter Glo assay.
LDH assay: LDH is an oxidoreductase enzyme that catalyses the interconversion of pyruvate and lactate. Cells release LDH into the bloodstream after tissue damage or red blood cell hemolysis. […] In this particular assay, LDH reduces NAD to NADH, which is specifically detected by colorimetric (490 nm) assay.
CellTiter Glo assay: The CellTiter-Glo® 2.0 Assay determines the number of viable cells in culture by quantifying ATP, which indicates the presence of metabolically active cells. Luminescence readout is directly proportional to the number of viable cells in culture. Data are expressed in luminescence (RLU) in triplicate

[3] = tested on: latent HIV in resting CD4+ T-lymphocytes; assay: HIV-1 reactivation in resting CD4+ T cells from PBMCs of three ART-treated HIV patients (HIV RNA in supernatant); format: cell-based, human
Excerpt: The experiments of this example analyzed the ability of IAPa, ICIs, or IAPa/ICI combinations at reactivating latent HIV in resting CD4+ T-lymphocytes isolated from peripheral blood monocytic cells (PBMCs) derived from HIV patients currently under ART.
Method: Resting CD4+ T cells were isolated from PBMCs of three ART-treated HIV patients by negative selection and magnetic separation (Easysep Mouse/Human Chimera Isolation Kits from […] technologies). Isolated resting CD4+ T cells (50,000 cells/50 μL) were treated in duplicate for 48h with different IAPa (1 μM) or ICI (10 μg/ml) in monotherapy, or the IAPa/ICI combinations. Amounts of virions released from cells were quantified at the indicated time points by quantifying HIV RNA levels (HIV RNA copies/mL) in supernatant of cell culture using one-step reverse transcriptase quantitative real-time PCR (ABI custom TaqMan Assays-by-Design) according to the manufacturer's instructions. Primers were 5-[…]-3 and 5-[…]-3, and MGB probe 5-FAM-[…]-Q-3, where FAM is 6-carboxyfluorescein.
as §1

[4] = IAPa 1 μM monotherapy (0.1% DMSO, no ICI), 48 h
[5] = IAPa 1 μM with Control IgG1, 48 h
[6] = IAPa 1 μM with Control IgG2, 48 h

CN[C@@H](C)C(=O)N[C@H]1CN(C(=O)CC(C)C)CC[C@H]2CC[C@@H](C(=O)NC(c3ccccc3)c3ccccc3)N2C1=O [Debio 1143, (5S,8S,10aR)-N-benzhydryl-5-((S)-2-(methylamino)propanamido)-3-(3-methylbutanoyl)-6-oxodecahydropyrrolo[1,2-a][1,5]diazocine-8-carboxamide]
latency reversal class (HIV RNA copies/ml in supernatant) [1, 4]: 2 (Between 2501 and 5000 RNA copies/ml were classified as “2”) | latency reversal class (HIV RNA copies/ml in supernatant) [1, 5]: 2 (Between 2501 and 5000 RNA copies/ml were classified as “2”) | latency reversal class (HIV RNA copies/ml in supernatant) [1, 6]: 2 (Between 2501 and 5000 RNA copies/ml were classified as “2”) | HIV load in organs (viral RNA levels in organ reservoirs) (HIV-1 (JR-CSF); 2 weeks after treatment completion, CD4+ cells of spleen, thymic organoid, lung, lymph nodes, liver): has no effect | Tissue HIV Load at Week 18, Liver (HIV-1 (JR-CSF); individual mice #1-5): 5.2 Log Viral RNA Copies/100,000 CD4+ Cells and 4.2 Log Viral RNA Copies/100,000 CD4+ Cells and 4.9 Log Viral RNA Copies/100,000 CD4+ Cells and 5.5 Log Viral RNA Copies/100,000 CD4+ Cells and 5.9 Log Viral RNA Copies/100,000 CD4+ Cells | Tissue HIV Load at Week 18, Lung (HIV-1 (JR-CSF); individual mice #1-5): 3.9 Log Viral RNA Copies/100,000 CD4+ Cells and 5.7 Log Viral RNA Copies/100,000 CD4+ Cells and 4.4 Log Viral RNA Copies/100,000 CD4+ Cells and 6.1 Log Viral RNA Copies/100,000 CD4+ Cells and 6.5 Log Viral RNA Copies/100,000 CD4+ Cells | Tissue HIV Load at Week 18, Lymph nodes (HIV-1 (JR-CSF); individual mice #1-5): 4.4 Log Viral RNA Copies/100,000 CD4+ Cells and 5 Log Viral RNA Copies/100,000 CD4+ Cells and 5.3 Log Viral RNA Copies/100,000 CD4+ Cells and 6.3 Log Viral RNA Copies/100,000 CD4+ Cells and 7.2 Log Viral RNA Copies/100,000 CD4+ Cells | Tissue HIV Load at Week 18, Spleen (HIV-1 (JR-CSF); individual mice #1-5): 4.4 Log Viral RNA Copies/100,000 CD4+ Cells and 6.4 Log Viral RNA Copies/100,000 CD4+ Cells and 5.2 Log Viral RNA Copies/100,000 CD4+ Cells and 5.5 Log Viral RNA Copies/100,000 CD4+ Cells and 6.7 Log Viral RNA Copies/100,000 CD4+ Cells | Tissue HIV Load at Week 18, Thymic organoid (HIV-1 (JR-CSF); individual mice #1-5): 4.6 Log Viral RNA Copies/100,000 CD4+ Cells and 5.3 Log Viral RNA Copies/100,000 CD4+ Cells and 3.9 Log Viral RNA Copies/100,000 CD4+ Cells and 5.7 Log Viral RNA Copies/100,000 CD4+ Cells and 6.2 Log Viral RNA Copies/100,000 CD4+ Cells | Tissue HIV Load at Week 18, Liver (HIV-1 (JR-CSF); mean of 5 mice): 5.14 Log Viral RNA Copies/100,000 CD4+ Cells | Tissue HIV Load at Week 18, Lung (HIV-1 (JR-CSF); mean of 5 mice): 5.32 Log Viral RNA Copies/100,000 CD4+ Cells | Tissue HIV Load at Week 18, Lymph nodes (HIV-1 (JR-CSF); mean of 5 mice): 5.64 Log Viral RNA Copies/100,000 CD4+ Cells | Tissue HIV Load at Week 18, Spleen (HIV-1 (JR-CSF); mean of 5 mice): 5.64 Log Viral RNA Copies/100,000 CD4+ Cells | Tissue HIV Load at Week 18, Thymic organoid (HIV-1 (JR-CSF); mean of 5 mice): 5.14 Log Viral RNA Copies/100,000 CD4+ Cells | cytotoxicity [2]: no significant cytotoxicity | latency reversal class (HIV RNA copies/ml in supernatant) [3, 4]: 1 (Between 501 and 1000 RNA copies/ml were classified as “1”) | latency reversal class (HIV RNA copies/ml in supernatant) [3, 5]: 1 (Between 501 and 1000 RNA copies/ml were classified as “1”) | latency reversal class (HIV RNA copies/ml in supernatant) [3, 6]: 1 (Between 501 and 1000 RNA copies/ml were classified as “1”)
